Experiment [1] concerns the target T1, Peroxisomal acyl-coenzyme A oxidase 1 (Homo sapiens, UniProt Q15067).
T1 sequence (Q15067 whole entry): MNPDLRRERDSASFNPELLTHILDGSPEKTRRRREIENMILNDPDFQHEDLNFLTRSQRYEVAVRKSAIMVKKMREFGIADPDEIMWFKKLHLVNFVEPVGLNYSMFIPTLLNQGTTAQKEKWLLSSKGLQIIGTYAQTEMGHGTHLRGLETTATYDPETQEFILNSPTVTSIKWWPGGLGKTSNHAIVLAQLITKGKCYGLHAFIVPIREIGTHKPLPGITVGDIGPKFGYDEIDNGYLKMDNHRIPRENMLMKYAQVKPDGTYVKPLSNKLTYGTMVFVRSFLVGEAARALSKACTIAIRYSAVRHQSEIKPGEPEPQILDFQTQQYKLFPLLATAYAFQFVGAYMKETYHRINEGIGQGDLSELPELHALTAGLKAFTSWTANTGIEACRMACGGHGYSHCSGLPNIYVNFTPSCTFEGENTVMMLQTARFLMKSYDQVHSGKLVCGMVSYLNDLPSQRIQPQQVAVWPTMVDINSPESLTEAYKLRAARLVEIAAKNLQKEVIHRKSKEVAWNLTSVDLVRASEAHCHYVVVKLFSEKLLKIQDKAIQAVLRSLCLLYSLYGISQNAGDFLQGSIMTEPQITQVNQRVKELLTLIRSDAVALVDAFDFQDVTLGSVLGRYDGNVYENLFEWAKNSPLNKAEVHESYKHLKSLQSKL

In experiment [2] the target is Actin-related protein 2 (Homo sapiens, UniProt P61160).
Experiment [3] concerns the target Cyclin-dependent kinase 3 (Homo sapiens, UniProt Q00526).
For experiment [4], the target named is T2, dCTP pyrophosphatase 1 (Homo sapiens, UniProt Q9H773).
T2 sequence (Q9H773 whole entry): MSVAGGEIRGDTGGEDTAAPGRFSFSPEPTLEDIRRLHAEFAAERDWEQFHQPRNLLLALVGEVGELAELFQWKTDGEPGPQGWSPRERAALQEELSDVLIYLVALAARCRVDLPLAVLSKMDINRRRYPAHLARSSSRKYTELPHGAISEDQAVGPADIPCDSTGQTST

Experiment [5] addresses T3, ATP-dependent RNA helicase DHX30 (Homo sapiens, UniProt Q7L2E3).
T3 sequence (Q7L2E3 whole entry): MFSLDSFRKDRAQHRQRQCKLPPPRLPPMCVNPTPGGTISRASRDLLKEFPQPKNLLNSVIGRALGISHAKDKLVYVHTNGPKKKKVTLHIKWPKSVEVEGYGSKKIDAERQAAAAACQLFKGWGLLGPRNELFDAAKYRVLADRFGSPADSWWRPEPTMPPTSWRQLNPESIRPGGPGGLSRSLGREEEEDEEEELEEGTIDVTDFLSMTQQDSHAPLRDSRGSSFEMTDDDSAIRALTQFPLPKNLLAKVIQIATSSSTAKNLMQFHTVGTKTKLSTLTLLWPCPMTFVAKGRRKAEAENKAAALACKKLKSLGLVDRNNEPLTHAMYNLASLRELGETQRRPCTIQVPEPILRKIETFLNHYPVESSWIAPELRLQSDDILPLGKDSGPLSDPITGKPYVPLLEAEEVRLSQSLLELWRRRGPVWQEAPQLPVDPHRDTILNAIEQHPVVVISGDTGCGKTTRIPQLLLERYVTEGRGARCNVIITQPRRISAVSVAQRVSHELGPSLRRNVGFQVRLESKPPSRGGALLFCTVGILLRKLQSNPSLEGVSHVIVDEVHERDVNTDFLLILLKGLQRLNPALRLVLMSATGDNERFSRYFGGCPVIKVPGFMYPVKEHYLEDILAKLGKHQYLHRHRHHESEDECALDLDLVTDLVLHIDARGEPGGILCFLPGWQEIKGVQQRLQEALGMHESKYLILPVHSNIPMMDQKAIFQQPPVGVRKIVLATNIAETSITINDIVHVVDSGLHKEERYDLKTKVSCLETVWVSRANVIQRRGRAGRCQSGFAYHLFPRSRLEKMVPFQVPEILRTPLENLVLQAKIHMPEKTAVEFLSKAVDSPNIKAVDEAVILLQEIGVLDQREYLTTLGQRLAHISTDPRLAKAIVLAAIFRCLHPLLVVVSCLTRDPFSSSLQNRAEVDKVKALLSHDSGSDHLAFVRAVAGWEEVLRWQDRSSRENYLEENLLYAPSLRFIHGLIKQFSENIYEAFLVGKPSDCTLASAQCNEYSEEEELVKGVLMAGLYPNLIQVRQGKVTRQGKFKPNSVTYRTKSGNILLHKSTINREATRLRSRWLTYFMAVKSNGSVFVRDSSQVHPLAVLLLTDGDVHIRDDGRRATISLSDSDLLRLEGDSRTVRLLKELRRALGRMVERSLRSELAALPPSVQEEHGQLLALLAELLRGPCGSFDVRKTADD

Experiment [6] has as its target Eukaryotic translation initiation factor 2-alpha kinase 1 (Homo sapiens, UniProt Q9BQI3).
Experiment [7] deals with T4, Rab-like protein 3 (Homo sapiens, UniProt Q5HYI8).
T4 sequence (Q5HYI8 whole entry): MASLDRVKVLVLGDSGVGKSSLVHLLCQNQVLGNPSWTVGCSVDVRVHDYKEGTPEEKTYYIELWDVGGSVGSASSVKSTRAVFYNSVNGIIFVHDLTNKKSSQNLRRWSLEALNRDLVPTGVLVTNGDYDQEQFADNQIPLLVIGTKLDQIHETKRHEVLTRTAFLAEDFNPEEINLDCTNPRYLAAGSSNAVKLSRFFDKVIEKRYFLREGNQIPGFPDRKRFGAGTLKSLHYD

The target of experiment [8] is Serine/threonine-protein kinase SIK2 (Homo sapiens, UniProt Q9H0K1).
Serine/threonine-protein kinase SIK2, sequence (Q9H0K1 whole entry): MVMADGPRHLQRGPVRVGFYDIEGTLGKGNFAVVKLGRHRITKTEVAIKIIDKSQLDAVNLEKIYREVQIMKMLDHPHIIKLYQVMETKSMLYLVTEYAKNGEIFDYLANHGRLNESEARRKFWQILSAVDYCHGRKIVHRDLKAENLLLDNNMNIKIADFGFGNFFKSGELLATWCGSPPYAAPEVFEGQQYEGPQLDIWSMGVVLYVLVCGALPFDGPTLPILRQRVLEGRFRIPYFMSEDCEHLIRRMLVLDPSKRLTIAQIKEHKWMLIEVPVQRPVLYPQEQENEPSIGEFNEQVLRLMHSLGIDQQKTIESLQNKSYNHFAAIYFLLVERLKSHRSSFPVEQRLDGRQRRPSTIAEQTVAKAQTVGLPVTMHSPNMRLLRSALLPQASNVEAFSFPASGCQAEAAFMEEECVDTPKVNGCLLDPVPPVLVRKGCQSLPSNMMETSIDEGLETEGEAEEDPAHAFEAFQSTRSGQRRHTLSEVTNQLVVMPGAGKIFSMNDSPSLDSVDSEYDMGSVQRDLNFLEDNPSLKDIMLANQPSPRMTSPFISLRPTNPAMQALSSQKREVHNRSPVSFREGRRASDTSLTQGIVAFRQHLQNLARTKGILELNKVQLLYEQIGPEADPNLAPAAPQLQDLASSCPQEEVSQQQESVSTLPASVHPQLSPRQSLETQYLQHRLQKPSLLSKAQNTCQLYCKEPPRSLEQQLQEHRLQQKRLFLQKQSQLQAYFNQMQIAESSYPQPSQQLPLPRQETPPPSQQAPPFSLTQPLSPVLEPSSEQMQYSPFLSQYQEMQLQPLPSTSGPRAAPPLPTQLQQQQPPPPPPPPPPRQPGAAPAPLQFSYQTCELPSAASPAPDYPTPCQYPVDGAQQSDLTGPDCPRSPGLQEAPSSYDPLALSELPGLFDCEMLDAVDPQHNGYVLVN

SMILES strings stand for the structures. Where a name gives a salt, the structure may show the parent alone. Active and inactive are the calls of the source.
Further: in the data inactive means no Kd found up to 30 µM.

Cyclin-dependent kinase 3, sequence (Q00526 whole entry): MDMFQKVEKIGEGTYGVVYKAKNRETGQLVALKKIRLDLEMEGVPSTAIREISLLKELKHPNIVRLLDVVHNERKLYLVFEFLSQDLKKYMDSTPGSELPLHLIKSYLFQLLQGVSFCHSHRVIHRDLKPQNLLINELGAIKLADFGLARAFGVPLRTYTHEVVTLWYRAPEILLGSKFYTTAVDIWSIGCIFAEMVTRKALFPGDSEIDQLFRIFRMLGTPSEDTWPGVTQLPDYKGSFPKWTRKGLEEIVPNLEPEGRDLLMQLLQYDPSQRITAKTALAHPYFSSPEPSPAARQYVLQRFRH
Eukaryotic translation initiation factor 2-alpha kinase 1, sequence (Q9BQI3 whole entry): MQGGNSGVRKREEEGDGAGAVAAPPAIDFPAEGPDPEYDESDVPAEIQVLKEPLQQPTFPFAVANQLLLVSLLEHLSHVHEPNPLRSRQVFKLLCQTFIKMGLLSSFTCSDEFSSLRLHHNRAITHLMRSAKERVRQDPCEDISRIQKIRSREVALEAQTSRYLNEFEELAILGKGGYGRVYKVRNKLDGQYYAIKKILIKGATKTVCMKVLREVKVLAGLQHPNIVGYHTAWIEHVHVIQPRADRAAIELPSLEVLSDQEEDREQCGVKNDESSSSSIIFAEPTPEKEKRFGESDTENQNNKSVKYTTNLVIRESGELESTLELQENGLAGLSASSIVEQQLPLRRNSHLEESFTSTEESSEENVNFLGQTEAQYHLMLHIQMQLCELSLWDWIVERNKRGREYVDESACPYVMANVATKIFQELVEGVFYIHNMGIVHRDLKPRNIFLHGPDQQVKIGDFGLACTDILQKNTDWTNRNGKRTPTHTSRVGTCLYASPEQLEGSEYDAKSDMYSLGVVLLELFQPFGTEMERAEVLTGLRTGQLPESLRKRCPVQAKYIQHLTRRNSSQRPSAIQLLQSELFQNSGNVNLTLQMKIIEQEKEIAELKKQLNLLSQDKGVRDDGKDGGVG

Broadly, the Kd is a measure of binding affinity in units of concentration. Take `Cc1nc2cc(-c3nn(C(C)C)c4ncnc(N)c34)ccc2o1`: the Kd in experiment [1], in experiment [2], in experiment [3], in experiment [4], in experiment [5] and in experiment [6] was > 30 µM (inactive) throughout. In addition, the Kd in experiment [7] and in experiment [8] was > 30 µM (inactive) throughout.
Take `COCc1c(-c2ccc(NC(=O)Nc3cc(C(F)(F)F)ccc3F)c(F)c2)c2c(N)ncnn2c1CN1CCOCC1`: the Kd in experiment [1], in experiment [2], in experiment [3], in experiment [4], in experiment [5] and in experiment [6] was > 30 µM (inactive) throughout. Further, the Kd in experiment [7] and in experiment [8] was > 30 µM (inactive) in each case.
Turning to `COc1cc(Nc2ncc3c(n2)-c2ccc(Cl)cc2C(c2c(F)cccc2OC)=NC3)ccc1C(=O)O` [ALISERTIB], the Kd in experiment [1], in experiment [2], in experiment [3], in experiment [4], in experiment [5] and in experiment [6] was > 30 µM (inactive) in each case. Also, the Kd in experiment [7] and in experiment [8] was > 30 µM (inactive) in each case.
On to `Cc1csc(-c2nnc(Nc3ccc(Oc4ncccc4-c4ccnc(N)n4)cc3)c3ccccc23)c1` [AMG-900], for which the Kd in experiment [1], in experiment [2], in experiment [3], in experiment [4], in experiment [5] and in experiment [6] was > 30 µM (inactive) throughout. Also, the Kd in experiment [7] and in experiment [8] was > 30 µM (inactive) each time.
On to `O=C(Nc1c[nH]nc1-c1nc2cc(CN3CCOCC3)ccc2[nH]1)NC1CC1` [AT-9283], for which the Kd in experiment [1], in experiment [2], in experiment [3], in experiment [4], in experiment [5] and in experiment [6] was > 30 µM (inactive) in each case. Besides, the Kd in experiment [7] is > 30 µM (inactive); in experiment [8], 0.03 µM (active).
In the case of `C=CC(=O)Nc1cc2c(Nc3ccc(F)c(Cl)c3)ncnc2cc1C#CC(C)(C)N1CCN(C)CC1` [AV-412 FREE BASE], the Kd in experiment [1], in experiment [2], in experiment [3], in experiment [4], in experiment [5] and in experiment [6] was > 30 µM (inactive) in each case. Besides, the Kd in experiment [7] and in experiment [8] was > 30 µM (inactive) throughout.
`CCS(=O)(=O)N1CCN(c2ccc(Nc3ncc(C(N)=O)c(NC4CC4)n3)cc2)CC1` [Cerdulatinib Hydrochloride]: the Kd in experiment [1] is > 30 µM (inactive); in experiment [3], > 30 µM (inactive); in experiment [4], > 30 µM (inactive); in experiment [5], > 30 µM (inactive); in experiment [6] it was 3.72 µM; in experiment [7], > 30 µM (inactive). Further, the Kd in experiment [8] is 0.128 µM (active).
As to `CNC(=O)c1cccc2cc(Oc3ccnc4cc(OCC5(N)CC5)c(OC)cc34)ccc12` [LUCITANIB], the Kd in experiment [1], in experiment [2], in experiment [3], in experiment [4], in experiment [5] and in experiment [6] was > 30 µM (inactive) each time. Moreover, the Kd in experiment [8] was > 30 µM (inactive).
As to `CCOc1cc2ncc(C#N)c(Nc3ccc(F)c(Cl)c3)c2cc1NC(=O)/C=C/CN(C)C` [PELITINIB], the Kd in experiment [1], in experiment [2], in experiment [3], in experiment [4], in experiment [5] and in experiment [6] was > 30 µM (inactive) each time. Moreover, in experiment [7], the Kd was > 30 µM (inactive).
Regarding `CNC(=O)c1cc(Oc2ccc(NC(=O)Nc3cc(C(C)(C)C)nn3-c3ccc4ncccc4c3)c(F)c2)ccn1` [REBASTINIB], the Kd was > 30 µM (inactive) in experiment [1]; > 30 µM (inactive) in experiment [2]; 2.65 µM (active) in experiment [3]; > 30 µM (inactive) in experiment [4]; > 30 µM (inactive) in experiment [5]; > 30 µM (inactive) in experiment [7]. The Kd in experiment [8] was > 30 µM (inactive).
Regarding `N#CC1(c2ccc(NC(=O)c3cccnc3NCc3ccncc3)cc2)CCCC1` [RIVOCERANIB], the Kd in experiment [1], in experiment [2], in experiment [4], in experiment [5], in experiment [6] and in experiment [7] was > 30 µM (inactive) each time. Further, the Kd in experiment [8] was > 30 µM (inactive).
On to `CO[C@H]1C[C@@H]2CC[C@@H](C)[C@@](O)(O2)C(=O)C(=O)N2CCCC[C@H]2C(=O)O[C@H]([C@H](C)C[C@@H]2CC[C@@H](O)[C@H](OC)C2)CC(=O)[C@H](C)/C=C(\C)[C@@H](O)[C@@H](OC)C(=O)[C@H](C)C[C@H](C)/C=C/C=C/C=C/1C` [SIROLIMUS], for which the Kd in experiment [1], in experiment [2], in experiment [4], in experiment [5], in experiment [6] and in experiment [8] was > 30 µM (inactive) in each case.
For `Cn1ncc(Cl)c1-c1cc(C(=O)N[C@H](CN)Cc2ccc(F)c(F)c2)oc1Cl` [UPROSERTIB], the Kd in experiment [1], in experiment [3], in experiment [4], in experiment [5], in experiment [6] and in experiment [7] was > 30 µM (inactive) in each case. The Kd in experiment [8] was > 30 µM (inactive).
Regarding `CC(C)c1cc(CNc2nc(Nc3cc(C4CC4)[nH]n3)cc(N3CCN(C)CC3)n2)on1` [XL-228], the Kd is > 30 µM (inactive) in experiment [1]; > 30 µM (inactive) in experiment [2]; 0.429 µM in experiment [3]; > 30 µM (inactive) in experiment [4]; > 30 µM (inactive) in experiment [5]; > 30 µM (inactive) in experiment [7]. In addition, in experiment [8], the Kd is 1.8 µM (active).

The values are drawn from ChEMBL document CHEMBL3991601, “The target landscape of clinical kinase drugs” (Science, 2017).
